Laboratory results as given in paper PMC7996900 (Microorganisms, 2021).

Biological target: SUMOHis6-GdpX6^GGDEF (GdpX6, PXO_02019) (Xanthomonas oryzae, UniProt A0A0K0GND9)
Assay: biochemical

Chain of SUMOHis6-GdpX6^GGDEF (GdpX6, PXO_02019) (A0A0K0GND9 318-494 limits assumed): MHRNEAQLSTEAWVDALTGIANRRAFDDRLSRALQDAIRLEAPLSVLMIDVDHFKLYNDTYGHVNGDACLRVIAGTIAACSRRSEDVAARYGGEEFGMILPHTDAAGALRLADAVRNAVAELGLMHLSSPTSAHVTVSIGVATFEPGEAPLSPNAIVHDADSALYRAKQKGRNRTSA

## Nc1nc2c(ncn2[C@@H]2O[C@@H]3CO[P@](=O)(O)O[C@H]4[C@@H](O)[C@H](n5cnc6c(=O)[nH]c(N)nc65)O[C@@H]4CO[P@](=O)(O)O[C@H]3[C@H]2O)c(=O)[nH]1 [c-di-GMP]
  Kd: 9 ± 2.98 µM
